In US20090062294A1, “HETEROARYL-SUBSTITUTED UREA MODULATORS OF FATTY ACID AMIDE HYDROLASE” (priority 2007, published 2009):
Structures can show the parent of a compound that is named as a salt.

Biological target: T1, FAAH (Homo sapiens, UniProt O00519)
T1 sequence (O00519 1-579): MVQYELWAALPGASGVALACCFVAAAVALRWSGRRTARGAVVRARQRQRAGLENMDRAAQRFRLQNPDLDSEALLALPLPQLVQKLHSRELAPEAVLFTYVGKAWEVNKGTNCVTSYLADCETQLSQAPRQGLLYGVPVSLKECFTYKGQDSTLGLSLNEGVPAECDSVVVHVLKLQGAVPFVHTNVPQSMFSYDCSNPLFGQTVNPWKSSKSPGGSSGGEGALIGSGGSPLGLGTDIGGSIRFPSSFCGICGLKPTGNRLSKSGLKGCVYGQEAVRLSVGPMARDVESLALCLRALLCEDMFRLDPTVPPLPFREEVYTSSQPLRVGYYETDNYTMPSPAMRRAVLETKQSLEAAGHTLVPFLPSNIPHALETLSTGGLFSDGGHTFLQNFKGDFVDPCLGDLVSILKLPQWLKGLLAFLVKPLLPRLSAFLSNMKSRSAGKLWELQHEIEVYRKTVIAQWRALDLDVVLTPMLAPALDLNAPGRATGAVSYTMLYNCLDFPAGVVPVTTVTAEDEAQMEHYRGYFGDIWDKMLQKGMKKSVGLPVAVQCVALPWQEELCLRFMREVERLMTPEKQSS
Assay: Assay Method 1: FAAH assay, 3H-anandamide hydrolysis in homogenate of T84 cells or SK-N-MC cells transfected with human FAAH
Type: biochemical
Conditions: average of results, > = solubility limit or highest concentration tested
Protocol: A. Transfection of Cells with Human FAAH
(§1) A 10-cm tissue culture dish with a confluent monolayer of SK—N-MC cells was split 2 days (d) prior to transfection. Using sterile technique, the media was removed and the cells were detached from the dish by the addition of trypsin. One fifth of the cells were then placed onto a new 10-cm dish. Cells were grown in a 37° C. incubator with 5% CO2 in Minimal Essential Media Eagle with 10% Fetal Bovine Serum. After 2 d, cells were approximately 80% confluent. These cells were removed from the dish with trypsin and pelleted in a clinical centrifuge. The pellet was re-suspended in 400 μL complete media and transferred to an electroporation cuvette with a 0.4 cm gap between the electrodes. Supercoiled human FAAH cDNA (1 μg) was added to the cells and mixed. The voltage for the electroporation was set at 0.25 kV, and the capacitance was set at 960 μF. After electroporation, the cells were diluted into complete media (10 mL) and plated onto four 10-cm dishes. Because of the variability in the efficiency of electroporation, four different concentrations of cells were plated. The ratios used were 1:20, 1:10, and 1:5, with the remainder of the cells being added to the fourth dish. The cells were allowed to recover for 24 h before adding the selection media (complete media with 600 μg/mL G418). After 10 d, dishes were analyzed for surviving colonies of cells. Dishes with well-isolated colonies were used. Cells from individual colonies were isolated and tested.
(§2) T84 frozen cell pellets or transfected SK—N-MC cells (contents of 1×15 cm culture dishes) were homogenized in 50 mL of FAAH assay buffer (125 mM Tris, 1 mM EDTA, 0.2% Glycerol, 0.02% Triton X-100, 0.4 mM Hepes, pH 9). The assay mixture consisted of 50 μL of the cell homogenate, 10 μL of the test compound, and 40 μL of anandamide [1-^3H-ethanolamine] (^3H-AEA, Perkin-Elmer, 10.3 Ci/mmol), which was added last, for a final tracer concentration of 80 nM. The reaction mixture was incubated at rt for 1 h. During the incubation, 96-well Multiscreen filter plates (catalog number MAFCNOB50; Millipore, Bedford, Mass., USA) were loaded with 25 μL of activated charcoal (Multiscreen column loader, catalog number MACL09625, Millipore) and washed once with 100 μL of MeOH. Also during the incubation, 96-well DYNEX MicroLite plates (catalog number NL510410) were loaded with 100 μL of MicroScint40 (catalog number 6013641, Packard Bioscience, Meriden, Conn., USA). After the 1 h incubation, 60 μL of the reaction mixture were transferred to the charcoal plates, which were then assembled on top of the DYNEX plates using Centrifuge Alignment Frames (catalog number MACF09604, Millipore). The unbound labeled ethanolamine was centrifuged through to the bottom plate (5 min at 2000 rpm), which was preloaded with the scintillant, as described above. The plates were sealed and left at rt for 1 h before counting on a Hewlett Packard TopCount.
(§3) Compounds were tested in free base, hydrochloride salt, and/or trifluoroacetic acid salt forms.

SMILES | IC50
O=C(Nc1noc2ccccc12)N1CCN(Cc2ccc3c(c2)OC(F)(F)O3)CC1 [Example 1, 4-(2,2-Difluoro-benzo[1,3]dioxol-5-ylmethyl)-piperazine-1-carboxylic acid benzo[d]isoxazol-3-ylamide trifluoroacetic acid salt] | 103 nM
O=C(Nc1nc(-c2ccccc2)ns1)N1CCN(Cc2ccc3c(c2)OC(F)(F)O3)CC1 [Example 2, 4-(2,2-Difluoro-benzo[1,3]dioxol-5-ylmethyl)-piperazine-1-carboxylic acid (3-phenyl-[1,2,4]thiadiazol-5-yl)-amide trifluoroacetic acid salt] | 212 nM
O=C(Nc1nnn[nH]1)N1CCN(Cc2ccc3c(c2)OC(F)(F)O3)CC1 [Example 3, 4-(2,2-Difluoro-benzo[1,3]dioxol-5-ylmethyl)-piperazine-1-carboxylic acid (1H-tetrazol-5-yl)-amide trifluoroacetic acid salt] | 1200 nM
O=C(Nc1cccc2nsnc12)N1CCN(Cc2ccc3c(c2)OC(F)(F)O3)CC1 [Example 4, 4-(2,2-Difluoro-benzo[1,3]dioxol-5-ylmethyl)-piperazine-1-carboxylic acid benzo[1,2,5]thiadiazol-4-ylamide trifluoroacetic acid salt] | 59 nM
O=C(Nc1noc2ccccc12)N1CCN(Cc2cccc(Oc3ncccn3)c2)CC1 [Example 95, 4-[3-(Pyrimidin-2-yloxy)-benzyl]-piperazine-1-carboxylic acid benzo[d]isoxazol-3-ylamide] | 2800 nM
O=C(Nc1nn[nH]n1)N1CCN(Cc2ccc3c(c2)OCO3)CC1 [Example 180, 4-Benzo[1,3]dioxol-5-ylmethyl-piperazine-1-carboxylic acid (2H-tetrazol-5-yl)-amide] | > 10000 nM
O=C(Nc1cnccn1)N1CCN(Cc2cccc(OCc3ccccc3)c2)CC1 [Example 223, 4-[3-(Benzyloxy)benzyl]-N-pyrazin-2-ylpiperazine-1-carboxamide] | 180 nM

Results, then the compound that gave them:

IC50 | SMILES
6300 nM | O=C(Nc1noc2ccccc12)N1CCN(Cc2ccc3cn[nH]c3c2)CC1 [Example 101, N-1,2-Benzisoxazol-3-yl-4-(1H-indazol-6-ylmethyl)piperazine-1-carboxamide]
825 nM | O=C(Nc1ccon1)N1CCN(Cc2ccc(OCc3ccccc3)cc2)CC1 [Example 135, 4-[4-(Benzyloxy)benzyl]-N-isoxazol-3-ylpiperazine-1-carboxamide]
2000 nM | O=C(Nc1ccon1)N1CCN(Cc2cc3ccccc3s2)CC1 [Example 142, 4-(1-Benzothiophen-2-ylmethyl)-N-isoxazol-3-ylpiperazine-1-carboxamide]
3000 nM | O=C(Nc1ccon1)N1CCN(Cc2ccc3ccccc3n2)CC1 [Example 146, 4-Quinolin-2-ylmethyl-piperazine-1-carboxylic acid isoxazol-3-ylamide]
1300 nM | O=C(Nc1ccon1)N1CCN(Cc2ccc(Br)c(Br)c2)CC1 [Example 154, 4-(3,4-Dibromobenzyl)-N-isoxazol-3-ylpiperazine-1-carboxamide]
230 nM | O=C(Nc1cnccn1)N1CCN(Cc2ccc(OCc3ccccc3)cc2)CC1 [Example 219, 4-[4-(Benzyloxy)benzyl]-N-pyrazin-2-ylpiperazine-1-carboxamide]

Biological target: T2, rat FAAH (Rattus norvegicus, UniProt P97612)
T2 sequence (P97612 1-579): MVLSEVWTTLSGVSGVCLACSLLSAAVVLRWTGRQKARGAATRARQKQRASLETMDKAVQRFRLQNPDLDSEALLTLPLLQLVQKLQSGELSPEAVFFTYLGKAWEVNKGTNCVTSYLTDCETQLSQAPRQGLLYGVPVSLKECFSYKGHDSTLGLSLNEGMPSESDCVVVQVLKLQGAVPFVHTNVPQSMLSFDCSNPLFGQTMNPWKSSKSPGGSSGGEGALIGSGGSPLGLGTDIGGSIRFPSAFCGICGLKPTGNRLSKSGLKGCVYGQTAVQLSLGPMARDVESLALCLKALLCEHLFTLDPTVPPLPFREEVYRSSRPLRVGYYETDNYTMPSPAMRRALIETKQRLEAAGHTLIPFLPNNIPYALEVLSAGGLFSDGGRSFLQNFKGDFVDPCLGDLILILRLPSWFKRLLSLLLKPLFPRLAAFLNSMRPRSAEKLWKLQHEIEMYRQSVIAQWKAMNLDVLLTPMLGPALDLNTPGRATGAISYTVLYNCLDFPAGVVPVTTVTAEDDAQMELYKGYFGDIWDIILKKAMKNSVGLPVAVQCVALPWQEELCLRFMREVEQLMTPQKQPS
Assay: Assay Method 2: FAAH assay, 3H-anandamide hydrolysis in homogenate of SK-N-MC cells transfected with rat FAAH
Type: biochemical
Conditions: average of results, > = solubility limit or highest concentration tested
Protocol: A. Transfection of Cells with Rat FAAH
as §1, with “rat” for “human”
as §2, §3

SMILES | IC50
O=C(Nc1noc2ccccc12)N1CCN(Cc2ccc3c(c2)OC(F)(F)O3)CC1 [Example 1, 4-(2,2-Difluoro-benzo[1,3]dioxol-5-ylmethyl)-piperazine-1-carboxylic acid benzo[d]isoxazol-3-ylamide trifluoroacetic acid salt] | 337 nM
O=C(Nc1nnn[nH]1)N1CCN(Cc2ccc3c(c2)OC(F)(F)O3)CC1 [Example 3, 4-(2,2-Difluoro-benzo[1,3]dioxol-5-ylmethyl)-piperazine-1-carboxylic acid (1H-tetrazol-5-yl)-amide trifluoroacetic acid salt] | 9000 nM
O=C(Nc1cccc2nsnc12)N1CCN(Cc2ccc3c(c2)OC(F)(F)O3)CC1 [Example 4, 4-(2,2-Difluoro-benzo[1,3]dioxol-5-ylmethyl)-piperazine-1-carboxylic acid benzo[1,2,5]thiadiazol-4-ylamide trifluoroacetic acid salt] | 260 nM
O=C(Nc1ccc2ncccc2n1)N1CCC(Cc2ccc3ccccc3c2)CC1 [Example 17, 4-Naphthalen-2-ylmethyl-piperidine-1-carboxylic acid [1,5]naphthyridin-2-ylamide trifluoroacetic acid salt] | 517 nM
O=C(Nc1ccc(Cl)nn1)N1CCC(Cc2ccc(F)cc2)CC1 [Example 23, 4-(4-Fluoro-benzyl)-piperidine-1-carboxylic acid (6-chloro-pyridazin-3-yl)-amide] | 5000 nM
O=C(Nc1ccon1)N1CCC(Cc2ccc(F)cc2)CC1 [Example 24, 4-(4-Fluoro-benzyl)-piperidine-1-carboxylic acid isoxazol-3-ylamide] | 4000 nM
O=C(Nc1cccc2nsnc12)N1CCN(Cc2cccc(Oc3ccc(Cl)cc3)c2)CC1 [Example 37, 4-[3-(4-Chloro-phenoxy)-benzyl]-piperazine-1-carboxylic acid benzo[1,2,5]thiadiazol-4-ylamide trifluoroacetic acid salt] | 6 nM
O=C(Nc1cc[nH]n1)N1CCN(Cc2cccc(Oc3ccc(Cl)cc3)c2)CC1 [Example 53, 4-[3-(4-Chloro-phenoxy)-benzyl]-piperazine-1-carboxylic acid (1H-pyrazol-3-yl)-amide trifluoroacetic acid salt] | 30 nM
O=C(Nc1nnn[nH]1)N1CCN(Cc2cccc(Oc3ccc(Cl)cc3)c2)CC1 [Example 57, 4-[3-(4-Chloro-phenoxy)-benzyl]-piperazine-1-carboxylic acid (1H-tetrazol-5-yl)-amide trifluoroacetic acid salt] | 167 nM

More lines, now with the values ahead:

IC50 | SMILES
> 10000 nM | O=C(Nc1ccon1)N1CCN(Cc2cnc3ccccc3c2)CC1 [Example 147, 4-Quinolin-3-ylmethyl-piperazine-1-carboxylic acid isoxazol-3-ylamide]
1000 nM | O=C(Nc1nnn[nH]1)N1CCN(Cc2ccc3ccccc3n2)CC1 [Example 175, 4-(Quinolin-2-ylmethyl)-N-1H-tetrazol-5-ylpiperazine-1-carboxamide]
